According to patent US20240398784A1, “C-LINKED ISOQUINOLINE AMIDES AS LRRK2 INHIBITORS, PHARMACEUTICAL COMPOSITIONS, AND USES THEREOF” (Merck Sharp & Dohme LLC, priority 2021, published 2024):

These compounds were tested against LRRK2 G2019S (Homo sapiens, UniProt Q5S007, G2019S) (assay: LRRK2 G2019S Km ATP LanthaScreen assay). Details: read-out: LRRK2 pIC50 (converted).
Sequence of LRRK2 G2019S (Q5S007 whole entry G2019S): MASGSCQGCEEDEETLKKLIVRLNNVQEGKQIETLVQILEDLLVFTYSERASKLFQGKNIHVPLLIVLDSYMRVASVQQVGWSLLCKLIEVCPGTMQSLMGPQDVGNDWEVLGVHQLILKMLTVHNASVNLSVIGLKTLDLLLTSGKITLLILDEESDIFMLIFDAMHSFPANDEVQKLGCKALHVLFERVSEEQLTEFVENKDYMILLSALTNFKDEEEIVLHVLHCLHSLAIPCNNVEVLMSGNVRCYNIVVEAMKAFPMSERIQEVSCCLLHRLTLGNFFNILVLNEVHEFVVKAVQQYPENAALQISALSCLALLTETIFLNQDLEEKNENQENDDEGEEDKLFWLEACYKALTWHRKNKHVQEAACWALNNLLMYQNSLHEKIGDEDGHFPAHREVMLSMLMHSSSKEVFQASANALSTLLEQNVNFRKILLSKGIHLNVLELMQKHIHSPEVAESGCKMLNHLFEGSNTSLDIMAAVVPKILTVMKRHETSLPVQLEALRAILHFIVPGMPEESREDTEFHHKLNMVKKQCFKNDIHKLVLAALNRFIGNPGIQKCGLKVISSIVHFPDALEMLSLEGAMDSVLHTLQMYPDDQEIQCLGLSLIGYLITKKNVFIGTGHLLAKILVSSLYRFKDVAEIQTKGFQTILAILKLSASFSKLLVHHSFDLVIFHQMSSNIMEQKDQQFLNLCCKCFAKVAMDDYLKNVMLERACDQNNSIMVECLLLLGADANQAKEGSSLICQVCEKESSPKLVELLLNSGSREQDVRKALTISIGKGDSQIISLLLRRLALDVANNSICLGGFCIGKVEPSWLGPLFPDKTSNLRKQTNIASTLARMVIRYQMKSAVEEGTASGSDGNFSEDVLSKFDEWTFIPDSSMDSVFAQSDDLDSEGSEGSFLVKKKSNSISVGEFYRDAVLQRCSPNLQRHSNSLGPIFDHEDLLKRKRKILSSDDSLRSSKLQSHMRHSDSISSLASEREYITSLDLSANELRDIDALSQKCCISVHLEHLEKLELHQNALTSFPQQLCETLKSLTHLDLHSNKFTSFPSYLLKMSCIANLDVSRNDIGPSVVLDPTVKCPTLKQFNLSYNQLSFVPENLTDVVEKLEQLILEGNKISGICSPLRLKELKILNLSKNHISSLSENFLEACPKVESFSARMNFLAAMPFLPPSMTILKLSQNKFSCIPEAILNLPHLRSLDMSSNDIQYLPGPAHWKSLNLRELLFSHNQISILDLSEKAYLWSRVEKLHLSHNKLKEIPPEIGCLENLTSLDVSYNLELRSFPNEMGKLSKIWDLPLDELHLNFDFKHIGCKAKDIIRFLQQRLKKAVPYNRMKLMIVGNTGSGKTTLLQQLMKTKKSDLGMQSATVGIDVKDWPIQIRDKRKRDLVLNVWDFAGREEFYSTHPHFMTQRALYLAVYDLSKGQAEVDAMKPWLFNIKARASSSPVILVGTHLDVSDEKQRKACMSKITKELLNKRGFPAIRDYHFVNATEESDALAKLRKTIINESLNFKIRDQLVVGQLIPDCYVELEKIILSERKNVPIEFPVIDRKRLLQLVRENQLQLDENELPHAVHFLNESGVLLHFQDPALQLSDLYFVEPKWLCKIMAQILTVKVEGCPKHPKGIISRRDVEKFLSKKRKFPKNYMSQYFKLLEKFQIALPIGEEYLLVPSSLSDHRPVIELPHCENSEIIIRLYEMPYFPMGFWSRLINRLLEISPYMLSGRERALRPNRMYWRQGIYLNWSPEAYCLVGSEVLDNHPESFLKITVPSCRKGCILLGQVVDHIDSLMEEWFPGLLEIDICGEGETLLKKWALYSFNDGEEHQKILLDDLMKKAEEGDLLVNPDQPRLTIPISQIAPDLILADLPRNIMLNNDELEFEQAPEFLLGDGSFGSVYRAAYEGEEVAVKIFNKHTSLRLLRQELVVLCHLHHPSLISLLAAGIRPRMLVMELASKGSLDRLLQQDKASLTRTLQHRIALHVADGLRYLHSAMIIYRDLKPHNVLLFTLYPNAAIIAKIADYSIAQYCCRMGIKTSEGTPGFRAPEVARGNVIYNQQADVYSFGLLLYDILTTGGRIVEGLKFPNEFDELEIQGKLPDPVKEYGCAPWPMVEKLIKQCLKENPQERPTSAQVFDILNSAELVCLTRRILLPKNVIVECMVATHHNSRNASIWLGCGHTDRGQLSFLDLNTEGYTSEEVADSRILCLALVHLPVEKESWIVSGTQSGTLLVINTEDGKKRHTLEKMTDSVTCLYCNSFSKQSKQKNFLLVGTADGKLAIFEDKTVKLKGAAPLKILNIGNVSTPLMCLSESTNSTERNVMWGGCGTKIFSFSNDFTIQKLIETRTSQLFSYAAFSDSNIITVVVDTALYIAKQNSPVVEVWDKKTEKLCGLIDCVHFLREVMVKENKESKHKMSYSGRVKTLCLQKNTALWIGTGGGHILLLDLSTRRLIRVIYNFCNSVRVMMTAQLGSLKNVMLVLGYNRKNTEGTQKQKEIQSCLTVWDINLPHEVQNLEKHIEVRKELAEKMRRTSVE
Format: biochemical
Experimental: Unless otherwise noted, all reactions are magnetically stirred. Unless otherwise noted, when diethyl ether is used in the experiments described below, it is Fisher ACS certified material and is stabilized with BHT. Unless otherwise noted, “concentrated” and/or “solvent removed under reduced pressure” means evaporating the solvent from a solution or mixture using a rotary evaporator or vacuum pump. Unless otherwise noted, flash chromatography is carried out on a Teledyne Isco (Lincoln, NE), Analogix (Burlington, WI), or Biotage (Stockholm, SWE) automated chromatography system using a commercially available cartridge as the column. Columns may be purchased from Teledyne Isco, Analogix, Biotage, Varian (Palo Alto, CA), or Supelco (Bellefonte, PA) and are usually filled with silica gel as the stationary phase. Reverse phase prep-HPLC conditions, where used, can be found at the end of each experimental section. Aqueous solutions were concentrated on a Genevac (Ipswich, ENG) or by freeze-drying/lyophilization.
`CC1(C)CC(C(=O)Nc2cc3cc(C4CCC(N5CCC(F)C5)CC4)c(Cl)cc3cn2)CCO1` (single isomer, unassigned) [Ex-5.11, N-(7-chloro-6-(4-(3-fluoropyrrolidin-1-yl)cyclohexyl)isoquinolin-3-yl)-2,2-dimethyltetrahydro-2H-pyran-4-carboxamid] showed an IC50 of 70.8 nM. Work on `Cn1cc(C2CC2C(=O)Nc2cc3cc(C4CCN(C5(C)COCC5O)CC4)c(Cl)cc3cn2)cn1` (stereo not shown) [Ex-2.36] yielded an IC50 of 0.55 nM. In the case of `CC1(N2CCC(c3cc4cc(NC(=O)C5CCCOC5)ncc4cc3Cl)CC2)COCC1O` (stereo not shown) [Ex-2.25], the IC50 is reported as 0.0813 nM. For `O=C(Nc1cc2cc(C3C4CCOCC43)c(Cl)cc2cn1)C1CC12CCOCC2` (single isomer, unassigned) [Ex-9.24, N-(6-(3-oxabicyclo[4.1.0]heptan-7-yl)-7-chloroisoquinolin-3-yl)-6-oxaspiro[2.5]octane-1-carboxamide], the IC50 was 6.61 nM. With `N#CC1(c2ccc3cnc(NC(=O)C4CC4c4ccncc4)cc3c2)CC12CC2` (stereo not shown) [Ex-2.42] the IC50 was 2.34 nM. Compound `CC1C(C(=O)Nc2cc3cc(C4CCN(C5(C)COCC5O)CC4)c(Cl)cc3cn2)C12CCOCC2` (single isomer, unassigned) [Ex-10.8, N-(7-chloro-6-(1-(4-hydroxy-3-methyltetrahydrofuran-3-yl)piperidin-4-yl)isoquinolin-3-yl)-2-methyl-6-oxaspiro[2.5]octane-1-carboxamide] has an IC50 of 145 nM. In the case of `N#CC1(c2ccc3cnc(NC(=O)C4CC4c4ccncc4)cc3c2)CC12CC2` (stereo not shown) [Ex-2.41], the IC50 is reported as 1.86 nM. For `N#CC1(c2ccc3cnc(NC(=O)C4CC4)cc3c2)CC1` [Ex-17.1], the IC50 was 19.1 nM. In the case of `CC(C)(F)C1CC1C(=O)Nc1cc2cc(C3CCN(C4(C)COCC4O)CC3)c(Cl)cc2cn1` (single isomer, unassigned) [Ex-4.47, N-(7-chloro-6-(1-(4-hydroxy-3-methyltetrahydrofuran-3-yl)piperidin-4-yl)isoquinolin-3-yl)-2-(2-fluoropropan-2-yl)cyclopropane-1-carboxamide], the IC50 is reported as 2 nM. `CC1(N2CCC(c3cc4cc(NC(=O)C5CC5)ncc4cc3Cl)C(F)C2)COC1` (stereo not shown) [Ex-14.3, N-(7-chloro-6-(3-fluoro-1-(3-methyloxetan-3-yl)piperidin-4-yl)isoquinolin-3-yl)cyclopropanecarboxamide] was tested, and the IC50 was 0.589 nM. `CCOC1CC2(C1)CC2C(=O)Nc1cc2cc(C3CCN(C4(C)COCC4F)CC3)c(C)cc2cn1` (single isomer, unassigned) [Ex-16.5, 5-ethoxy-N-(6-(1-(4-fluoro-3-methyltetrahydrofuran-3-yl)piperidin-4-yl)-7-methylisoquinolin-3-yl)spiro[2.3]hexane-1-carboxamide] showed an IC50 of 0.0813 nM. Compound `O=C(Nc1cc2cc(C3CCN(C4CS(=O)(=O)C4)CC3)c(Cl)cc2cn1)C1CC1` [Ex-13.5] has an IC50 of 4.17 nM. Work on `CC1(C)CCC(C(=O)Nc2cc3cc(C4CCC(N5CCC(F)C5)CC4)c(Cl)cc3cn2)CO1` (single isomer, unassigned) [Ex-5.24, N-(7-chloro-6-(4-(3-fluoropyrrolidin-1-yl)cyclohexyl)isoquinolin-3-yl)-6,6-dimethyltetrahydro-2H-pyran-3-carboxamide] yielded an IC50 of 4270 nM. Compound `CC1(C)CC(C(=O)Nc2cc3cc(C4CCN(C5(C)COCC5F)CC4)c(Cl)cc3cn2)CCO1` (single isomer, unassigned) [Ex-6.38, N-(7-chloro-6-(1-(4-fluoro-3-methyltetrahydrofuran-3-yl)piperidin-4-yl)isoquinolin-3-yl)-2,2-dimethyltetrahydro-2H-pyran-4-carboxamide] has an IC50 of 0.871 nM. With `CC1(N2CCC(c3cc4cc(NC(=O)C5CC56CCOC6)ncc4cc3Cl)CC2)COCC1F` (single isomer, unassigned) [Ex-6.4, (R or S)-N-(7-chloro-6-(1-((3R,4R or 3S,4S)-4-fluoro-3-methyltetrahydrofuran-3-yl)piperidin-4-yl)isoquinolin-3-yl)-5-oxaspiro [2.4] heptane-1-carboxamide] the IC50 was 141 nM. With `CC1(c2ccccn2)CC1C(=O)Nc1cc2cc(C3CCN(C4(C)COCC4O)CC3)c(Cl)cc2cn1` (stereo not shown) [Ex-2.91] the IC50 was 240 nM. Work on `CCC1C(C(=O)Nc2cc3cc(C4CCC(N5CC(C)(F)C5)CC4)c(Cl)cc3cn2)C1c1cnn(C)c1` (single isomer, unassigned) [Ex-11.2, (1R,2R,3R) or (1R,2S,3R) or (1S,2R,3S) or (1S,2S,3S)-N-(7-chloro-6-((cis or trans)-4-(3-fluoro-3-methylazetidin-1-yl)cyclohexyl)isoquinolin-3-yl)-2-ethyl-3-(1-methyl-1H-pyrazol-4-yl)cyclopropane-1-carboxamide] yielded an IC50 of 9.12 nM. `O=C(Nc1cc2cc(C3CCN(C4COC4)CC3)c(Cl)cc2cn1)[C@@H]1CCCCO1` [Ex-1.10, (S)-N-(7-chloro-6-(1-(oxetan-3-yl)piperidin-4-yl)isoquinolin-3-yl)tetrahydro-2H-pyran-2-carboxamide] was tested, and the IC50 was 3.98 nM. In the case of `CC1(C(=O)Nc2cc3cc(C4CCN(C5COC5)CC4)c(Cl)cc3cn2)CC1` [Ex-7.3, N-(7-chloro-6-(1-(oxetan-3-yl)piperidin-4-yl)isoquinolin-3-yl)-1-methylcyclopropane-1-carboxamide], the IC50 is reported as 16.6 nM. `CCC1C(C(=O)Nc2cc3cc(C(C)CC#N)c(Cl)cc3cn2)C1c1cnn(C)c1` (single isomer, unassigned) [Ex-9.15, N-(7-chloro-6-(1-cyanopropan-2-yl)isoquinolin-3-yl)-2-ethyl-3-(1-methyl-1H-pyrazol-4-yl)cyclopropane-1-carboxamide] showed an IC50 of 0.427 nM. `CC1CC1(C#N)c1ccc2cnc(NC(=O)C3CC3)cc2c1` (single isomer, unassigned) [Ex-18.6, (R or S)-N-(6-(1-cyano-2-methylcyclopropyl)isoquinolin-3-yl)cyclopropanecarboxamide] showed an IC50 of 60.3 nM. Work on `CC1(N2CCC(c3cc4cc(NC(=O)C5C6CCOCC65)ncc4cc3Cl)CC2)COCC1O` (single isomer, unassigned) [Ex-4.33, N-(7-chloro-6-(1-(4-hydroxy-3-methyltetrahydrofuran-3-yl)piperidin-4-yl)isoquinolin-3-yl)-3-oxabicyclo[4.1.0]heptane-7-carboxamide] yielded an IC50 of 1.17 nM. `CC1(N2CCC(c3cc4cc(NC(=O)C5CC56CCOCC6)ncc4cc3Cl)C(F)C2)COCC1O` (single isomer, unassigned) [Ex-14.6, N-(7-chloro-6-(3-fluoro-1-(4-hydroxy-3-methyltetrahydrofuran-3-yl)piperidin-4-yl)isoquinolin-3-yl)-6-oxaspiro[2.5]octane-1-carboxamide] showed an IC50 of 2.57 nM. `CC1(C)CC(C(=O)Nc2cc3cc(C4CCC(N5CCC(F)C5)CC4)c(Cl)cc3cn2)CCO1` (single isomer, unassigned) [Ex-5.16, N-(7-chloro-6-(4-(3-fluoropyrrolidin-1-yl)cyclohexyl)isoquinolin-3-yl)-2,2-dimethyltetrahydro-2H-pyran-4-carboxamid] gave an IC50 of 389 nM. Work on `CC1(N2CCC(c3cc4cc(NC(=O)C5COC6(CCC6)C5)ncc4cc3Cl)CC2)COCC1O` (single isomer, unassigned) [Ex-4.17, N-(7-chloro-6-(1-(4-hydroxy-3-methyltetrahydrofuran-3-yl)piperidin-4-yl)isoquinolin-3-yl)-5-oxaspiro[3.4]octane-7-carboxamide] yielded an IC50 of 0.102 nM.
